Like-named read-outs stand apart in the source and are kept apart here.
Key:
[1] = test system: PqsR (pqsA promoter, PA14 mCTX::PpqsA-lux); assay: Whole cell biosensor reporter assay, PA14 mCTX::PpqsA-lux; type: cell-based, Pseudomonas aeruginosa; details: for IC50: Mean ± SD, n = 3; for activity at 10 µM: PA14, read-out: PA14 Remaining Activity %; for PqsR inhibitory activity (in words), PA14: screen at 10 µM
Description: (§1) To determine the ability of the quinolines to inhibit PqsR functionality, the P. aeruginosa biosensor strains, PAO1-L and PA14, incorporating a chromosomal mCTX::PpqsA-lux transcriptional fusion, were used. These report on the activation of the pqsA promoter, regulated by PqsR [25]. PAO1-L and PA14 were chosen because they are genetically amenable and belong to the two major P. aeruginosa genomic groups. The quinolone compounds were incubated with the corresponding strain, and luminescence and optical density readings were recorded to monitor the effect of the quinolines on PqsR activity and bacterial growth, respectively. The compounds were screened at 10 µM concentration, and the activity was compared to a control of DMSO (0.1%) (Figure 3a). To be considered a hit, a threshold of at least 50% inhibition of the test compound, relative to the negative control had to be reached, without affecting bacterial growth. […] Concentration-response experiments were then carried out to determine the IC50 values (Figure 3b,c), which are summarised in Table 1.
(§2) Strains PA14 mCTX::PpqsA-lux and PAO1-L mCTX::PpqsA-lux were constructed using plasmid mini-CTX::PpqsA-lux, as previously described, and the assay was performed according to a published protocol. For screening, the compounds were tested at a concentration of 10 µM, which was prepared from a 10 mM stock, in DMSO.

[2] = test system: PqsR (pqsA promoter, PAO1-L mCTX::PpqsA-lux); assay: Whole cell biosensor reporter assay, PAO1-L mCTX::PpqsA-lux; type: cell-based, Pseudomonas aeruginosa; details: for IC50: Mean ± SD, n = 3; for activity at 10 µM: PAO1, read-out: PAO1-L Remaining Activity %; for PqsR inhibitory activity (in words), PAO1-L: screen at 10 µM / dose-response
Description: as §1, §2

[3] = test system: PA14; assay: Bacterial growth (optical density) in reporter assay, PA14; type: cell-based, Pseudomonas aeruginosa; details: compound vs DMSO control
Description: as §1
(§3) Figure 3 Whole bacterial cell-based P. aeruginosa compound screen for both PqsR and growth inhibition (a) Activity against PA14 (green) and PAO1-L (purple) PpqsA-lux reporter strains at 10 µM test compound; (b) and (c) Dose-response curves for active compounds against PA14 (b) and PAO1-L (c); (d) and (e) growth curves for PA14 (d) and PAO1-L (e) in the presence of compound or DMSO control.

[4] = test system: PAO1-L; assay: Bacterial growth (optical density) in reporter assay, PAO1-L; type: cell-based, Pseudomonas aeruginosa; details: compound vs DMSO control
Description: as §1, §3

[5] = Plasma stability, rat; type: in vitro ADME; details: 37 °C, up to 2 h, read-out: Plasma Stability Rat t1/2
Description: (§4) Dilutions of a 10 mM test compound DMSO stock solution were prepared so that the final DMSO concentration was 1% v/v and the final test compound concentration tested was 1 µM. Following the addition of the test compound to plasma, the samples were pre-incubated for 10 min prior to the start of the incubation by the addition of the test compound. The test compound was incubated (n = 2; 1 µM final concentration) at 37 °C with plasma for up to 2 h. Aliquots were sampled at several time points and mixed with acetonitrile (containing internal standard) to terminate the reaction and precipitate the proteins. All the samples were mixed, centrifuged and the supernatants analysed by UPLC-MSMS. Parent disappearance and half-life (t 1/2) values were determined from the slope of the parent depletion curve. Control compounds (imidapril, enalapril, tenofovir and/or propantheline), were respectively included.

[6] = Plasma stability, human; type: in vitro ADME; details: 37 °C; for half-life at 1 µM: human, plasma, up to 2 h, read-out: Plasma Stability Human t 1/2
Description: as §4

[7] = Hepatic microsomal stability, rat; type: in vitro ADME; details: liver microsomes, pH 7.4, 0.5 mg/mL protein, NADPH, 37 °C; for microsomal CLint at 1 µM: read-out: Microsomal Stability Rat Clint (intrinsic clearance); for half-life at 1 µM: read-out: Microsomal Stability Rat t1/2
Description: (§5) Dilutions of a 1 mM test compound DMSO stock solution were prepared in buffer (typically 0.01 M phosphate buffered saline (pH 7.4) so that the final DMSO concentration was 0.1% v/v and the final test compound concentration tested was 1 µM. Following addition of protein (0.5 mg/mL final) and NADPH, the samples were pre-incubated for 10 min prior to the start of the incubation by the addition of test compound. The test compounds were then incubated (n = 2; 1 µM final concentration) at 37 °C with tissue microsomes. Aliquots were sampled at several time points and mixed with acetonitrile (containing internal standard) to terminate the reaction and precipitate the proteins. All the samples were mixed, centrifuged and the supernatants analysed by UPLC-MS/MS. The intrinsic clearance (Clint) and half-life (t 1/2) values were determined from the slope of the parent depletion curve. Control compounds for low, moderate and high intrinsic clearance, respectively, for both human and rat microsomes, were included.

[8] = Hepatic microsomal stability, human; type: in vitro ADME; details: liver microsomes, pH 7.4, 0.5 mg/mL protein, NADPH, 37 °C; for half-life at 1 µM: read-out: Microsomal Stability Human t1/2
Description: as §5

[9] = test system: AQ production in PA14; assay: Alkylquinolone (HHQ, PQS, HQNO) production by LC-MS/MS, PA14; type: cell-based, Pseudomonas aeruginosa; details: 3x IC50, 16 h, culture supernatant
Description: (§6) HQNO, can protect Staphylococcus aureus from vancomycin [31] and contributes to the environmental competitiveness of P. aeruginosa, through its activity as a potent inhibitor of the cytochrome bc1 complex. […] LC-MS/MS was used to quantify the major AQs HHQ, PQS and HQNO after incubation of the P. aeruginosa strains with the hit compounds, for 16 h. The assay was performed using both PAO1-L and PA14 strains which were treated with PqsR antagonists at concentrations three-fold higher than their IC50 values. The results obtained depended on the inhibitor and strain tested (Figure 5).
(§7) For each test sample, 100 µL of sterile filtered supernatant (the same preparation as for pyocyanin) was spiked with 10 µL of an internal standard solution (10 µM d4-PQS in MeOH), and diluted with water, to a total volume of 500 µL. Samples were then extracted three times with an 0.5 mL aliquot of ethyl acetate, vortex mixing the aqueous/organic mix for 2 min, then removing the organic phase once the layers had successfully partitioned. For each sample, the combined organic extracts were dried under vacuum and re-dissolved in 100 µL MeOH prior to analysis. For the LC-MS/MS analysis of supernatant extracts, the chromatography was achieved using a Shimadzu series 10AD VP LC system (Columbia, MD, USA). The LC column, maintained at 40 °C, was a Phenomenex Gemini C18 (3.0 µm, 100 × 3.0 mm) (Macclesfield, Cheshire, UK) with an appropriate guard column. Mobile phase A was 0.1% (v/v) formic acid in water containing 2 mM 2-picolinic acid, and mobile phase B 0.1% (v/v) formic acid in methanol. The flow rate throughout the chromatographic separation was 450 µL/min. After an injection of a 2 µL/sample, a binary gradient, beginning initially at 30% B, increased linearly to 99% B over 5 min. The composition remained at 99% B for 3 min, decreased to 30% B over 1 min, and stayed at this composition for 4 min, to allow for column equilibration. […] Where chromatographic peaks for HHQ, HQNO and PQS were detected, a peak area was determined, and analyte peak area/internal standard peak area calculated.

[10] = test system: AQ production in PAO1-L; assay: Alkylquinolone (HHQ, PQS, HQNO) production by LC-MS/MS, PAO1-L; type: cell-based, Pseudomonas aeruginosa; details: 3x IC50, 16 h, culture supernatant
Description: as §6, §7

[11] = Pseudomonas aeruginosa, PA14, read-out: IC50 PA14, PpqsA-lux reporter
[12] = Pseudomonas aeruginosa, PAO1, read-out: IC50 PAO1-L, PpqsA-lux reporter
[13] = read-out: IC50 PAO1-L, PpqsA-lux reporter

Compound	IC50 [1, 11] [µM]	activity at 10 µM ([1]; Pseudomonas aeruginosa) [%]	IC50 ([1]; read-out: IC50 PA14, PpqsA-lux reporter) [µM]	PqsR inhibitory activity (in words), PA14 [1]	IC50 [2, 12] [µM]	activity at 10 µM ([2]; Pseudomonas aeruginosa) [%]	IC50 [2, 13] [µM]	PqsR inhibitory activity (in words), PAO1-L [2]	Effect on bacterial growth, PA14 [3]	Effect on bacterial growth, PAO1-L [4]	half-life at 1 µM [5] [min]	Plasma stability (in words), human plasma ([6]; 1 µM)	half-life at 1 µM [6] [min]	microsomal CLint at 1 µM [7] [µL/min/mg]	half-life at 1 µM [7] [min]	microsomal CLint at 1 µM [8] [µL/min/mg]	half-life at 1 µM [8] [min]	Inhibition of AQ production (in words), PA14 [9]	Inhibition of AQ production (in words), PAO1-L [10]
CC(=O)N1N=C(c2ccccc2)CC1c1cccc(Nc2ccnc3cc(C(F)(F)F)ccc23)c1 (stereo not shown) [IIi]	5	16.8 ± 1.01	4.9 ± 0.3	strong PqsR inhibitory activity	5	26.1 ± 0.99	5.14 ± 0.6	strong PqsR inhibitory activity	without interfering with bacterial growth	without interfering with bacterial growth	> 240	greatest plasma stability	157	65.7	21.1	72.9	19		
O=CN1N=C(c2ccccc2)CC1c1cccc(Nc2ccnc3cc(C(F)(F)F)ccc23)c1 (stereo not shown) [Ii]	5 ± 0.82	16.6 ± 1.3		strong PqsR inhibitory activity	5	15.6 ± 2.53	5.1 ± 0.32	strong PqsR inhibitory activity	without interfering with bacterial growth	without interfering with bacterial growth	> 240		69.1	54.1	25.7	80.7	17.2	not observed	greatest inhibition

From article PMC6017655, “In Silico and in Vitro-Guided Identification of Inhibitors of Alkylquinolone-Dependent Quorum Sensing in Pseudomonas aeruginosa” (Molecules : A Journal of Synthetic Chemistry and Natural …, 2018)
